Measurements: PubChem BioAssay (NCI)
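Growth conditions: 96-well plates. Treatment: test compound, 48 hours, 5 concentrations. Analysis: linear interpolation between bracketing concentrations; unreached endpoints set to highest concentration. The concentration for 50% growth inhibition is given as GI50. TGI marks complete inhibition of growth.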

Legend:
Assay in all cases: NCI tumour cell line growth inhibition, 48 h
[1] = system: HOP-62 NSCLC
[2] = system: CCRF-CEM leukemia
[3] = system: T-47D breast
[4] = system: SK-MEL-2 melanoma
[5] = system: NCI-H522 lung
[6] = system: OVCAR-3 ovarian
[7] = system: 786-0 renal
[8] = system: MALME-3M melanoma
[9] = system: HOP-92 NSCLC
[10] = system: UACC-257 melanoma
[11] = system: ACHN renal
[12] = system: U251 CNS
[13] = system: UO-31 renal
[14] = system: LOX IMVI melanoma
[15] = system: HCT-116 colon
[16] = system: A498 renal
[17] = system: BT-549 breast
[18] = system: SK-MEL-5 melanoma
[19] = system: COLO 205 colon
[20] = system: SR leukemia
[21] = system: RPMI-8226 leukemia
[22] = system: EKVX NSCLC
[23] = system: MDA-MB-435
[24] = system: SW-620 colon
[25] = system: DU-145 prostate
[26] = system: NCI-H23 lung
[27] = system: UACC-62 melanoma
[28] = system: MOLT-4 leukemia
[29] = system: HL-60(TB) leukemia
[30] = system: SK-MEL-28 melanoma
[31] = system: K-562 leukemia
[32] = system: TK-10 renal
[33] = system: IGROV1 ovarian
[34] = system: PC-3 prostate
[35] = system: HT29 colon
[36] = system: NCI-H226 lung
[37] = system: OVCAR-5 ovarian
[38] = system: SF-268 CNS
[39] = system: NCI-H460 lung
[40] = system: A549 NSCLC
[41] = system: SN12C renal
[42] = system: M14 melanoma
[43] = system: MCF7 breast
[44] = system: OVCAR-4 ovarian
[45] = system: NCI/ADR-RES ovarian
[46] = system: CAKI-1 renal
[47] = system: SF-295 CNS
[48] = system: SK-OV-3 ovarian
[49] = system: HCT-15 colon
[50] = system: MDA-MB-231 breast
[51] = system: SNB-75 CNS
[52] = system: SF-539 CNS
[53] = system: KM12 colon
[54] = system: SNB-19 CNS

## CCCCCCCCCCCCC/C=C/[C@H]1[C@@H](C(=O)OC)N1S(=O)c1ccc(C)cc1 (stereo not given in full)
[1]
  TGI: > 100000 nM
[2]
  TGI: > 100000 nM
[3]
  TGI: > 100000 nM
[4]
  TGI: > 100000 nM
[5]
  TGI: > 100000 nM
[6]
  TGI: > 100000 nM
[7]
  TGI: > 100000 nM
[8]
  TGI: > 100000 nM
[9]
  TGI: > 100000 nM
[10]
  TGI: > 100000 nM
[11]
  TGI: > 100000 nM
[12]
  TGI: > 100000 nM
[13]
  TGI: > 100000 nM
[14]
  TGI: > 100000 nM
[15]
  TGI: > 100000 nM
[16]
  TGI: > 100000 nM
[17]
  TGI: > 100000 nM
[18]
  TGI: > 100000 nM
[19]
  TGI: > 100000 nM
[20]
  TGI: > 100000 nM
[21]
  TGI: > 100000 nM
[22]
  TGI: > 100000 nM
[23]
  TGI: > 100000 nM
[24]
  TGI: > 100000 nM
[25]
  TGI: > 100000 nM
[26]
  TGI: > 100000 nM
[27]
  TGI: > 100000 nM
[28]
  TGI: > 100000 nM
[29]
  TGI: 81300 nM
[30]
  TGI: > 100000 nM
[31]
  TGI: > 100000 nM
[32]
  TGI: > 100000 nM
[33]
  TGI: > 100000 nM
[34]
  TGI: > 100000 nM

## CNCCCNc1c2cc(OC)ccc2nc2cccc([N+](=O)[O-])c12
[1]
  GI50: 28.4 nM
  TGI: 81 nM
[35]
  GI50: 22.3 nM
  TGI: 80.6 nM
[36]
  GI50: 128 nM
  TGI: 385 nM
[2]
  GI50: 17.3 nM
  TGI: 173 nM
[37]
  GI50: 24.6 nM
  TGI: 99.3 nM
[6]
  GI50: 234 nM
  TGI: 818 nM
[7]
  GI50: 34.3 nM
  TGI: 306 nM
[38]
  GI50: 56.5 nM
  TGI: 376 nM
[39]
  GI50: 25 nM
  TGI: 103 nM
[8]
  GI50: 110 nM
  TGI: 315 nM
[9]
  GI50: 23.2 nM
  TGI: 137 nM
[10]
  GI50: 173 nM
  TGI: 397 nM
[40]
  GI50: 32 nM
  TGI: 247 nM
[41]
  GI50: 86.4 nM
  TGI: 16500 nM
[13]
  GI50: 85.5 nM
  TGI: 275 nM
[14]
  GI50: 64.1 nM
  TGI: 354 nM
[42]
  GI50: 21.1 nM
  TGI: 47.6 nM
[15]
  GI50: 25.5 nM
  TGI: 150 nM
[43]
  GI50: 23.4 nM
  TGI: 101 nM
[16]
  GI50: 63.7 nM
  TGI: 271 nM
[44]
  GI50: 16.6 nM
  TGI: 52.8 nM
[17]
  GI50: 186 nM
  TGI: 406 nM
[18]
  GI50: 19 nM
  TGI: 37.5 nM
[19]
  GI50: 41.8 nM
  TGI: 237 nM
[45]
  GI50: 444 nM
  TGI: 3470 nM
[20]
  GI50: 25.3 nM
[22]
  GI50: 274 nM
  TGI: 1150 nM
[46]
  GI50: 30.6 nM
  TGI: 128 nM
[24]
  GI50: 36.9 nM
  TGI: 517 nM
[25]
  GI50: 45.4 nM
  TGI: 14800 nM
[47]
  GI50: 40.7 nM
  TGI: 258 nM
[26]
  GI50: 26.9 nM
  TGI: 220 nM
[48]
  GI50: 65 nM
  TGI: 670 nM
[28]
  TGI: 48.2 nM
[49]
  GI50: 28.5 nM
[50]
  GI50: 69.4 nM
  TGI: 672 nM
[29]
  GI50: 16.2 nM
[30]
  GI50: 150 nM
  TGI: 650 nM
[51]
  GI50: 61.1 nM
  TGI: 224 nM
[52]
  GI50: 132 nM
  TGI: 366 nM
[31]
  GI50: 15.3 nM
  TGI: 44.9 nM
[32]
  TGI: 378 nM
[53]
  GI50: 43.1 nM
  TGI: 251 nM
[33]
  GI50: 33.8 nM
  TGI: 195 nM
[34]
  TGI: 277 nM
[54]
  GI50: 123 nM
  TGI: 519 nM
